Test system: A549 (Human lung cancer cell line)
Assay: Effect of combination of sulfonamide compound and other antitumor agent (CellTiter-Glo, combination index): A549
[1] = Table 36: Example Compound 1 345 nM + Prexasertib 1.98 nM, molar ratio 1:0.005730
[2] = Table 36: Example Compound 1 345 nM + SCH900776 910 nM, molar ratio 1:2.639
[3] = Table 36: Example Compound 1 517 nM + AZD6738 1037 nM, molar ratio 1:2.005
[4] = Table 36: Example Compound 1 517 nM + Fludarabine nucleoside 5910 nM, molar ratio 1:11.44
[5] = Table 36: Example Compound 1 517 nM + Prexasertib 2.96 nM, molar ratio 1:0.005730
[6] = Table 36: Example Compound 1 517 nM + SCH900776 1360 nM, molar ratio 1:2.639
[7] = Table 36: Example Compound 1 775 nM + AZD6738 1554 nM, molar ratio 1:2.005
[8] = Table 36: Example Compound 1 775 nM + Decitabine 1340 nM, molar ratio 1:1.733
[9] = Table 36: Example Compound 1 775 nM + Fludarabine nucleoside 8870 nM, molar ratio 1:11.44
[10] = Table 36: Example Compound 1 775 nM + Guadecitabine 469 nM, molar ratio 1:0.6048
[11] = Table 36: Example Compound 1 775 nM + Prexasertib 4.44 nM, molar ratio 1:0.005730
[12] = Table 36: Example Compound 1 775 nM + SCH900776 2050 nM, molar ratio 1:2.639
[13] = Table 36: Example Compound 1 1160 nM + AZD6738 2326 nM, molar ratio 1:2.005
[14] = Table 36: Example Compound 1 1160 nM + Cytarabine 110 nM, molar ratio 1:0.09524
[15] = Table 36: Example Compound 1 1160 nM + Decitabine 2010 nM, molar ratio 1:1.733
[16] = Table 36: Example Compound 1 1160 nM + Fludarabine nucleoside 13300 nM, molar ratio 1:11.44
[17] = Table 36: Example Compound 1 1160 nM + Gemcitabine 5.58 nM, molar ratio 1:0.004813
[18] = Table 36: Example Compound 1 1160 nM + Guadecitabine 702 nM, molar ratio 1:0.6048
[19] = Table 36: Example Compound 1 1160 nM + SCH900776 3060 nM, molar ratio 1:2.639
[20] = Table 36: Example Compound 1 1160 nM + Sunitinib 1870 nM, molar ratio 1:1.608
[21] = Table 36: Example Compound 1 1160 nM + Trifluridine 430 nM, molar ratio 1:0.3703
[22] = Table 36: Example Compound 1 1740 nM + 5-Fluorouracil 4300 nM, molar ratio 1:2.469
[23] = Table 36: Example Compound 1 1740 nM + Azacytidine 4080 nM, molar ratio 1:2.344
[24] = Table 36: Example Compound 1 1740 nM + Cabozantinib 5990 nM, molar ratio 1:3.443
[25] = Table 36: Example Compound 1 1740 nM + Cytarabine 166 nM, molar ratio 1:0.09524
[26] = Table 36: Example Compound 1 1740 nM + Decitabine 3020 nM, molar ratio 1:1.733
[27] = Table 36: Example Compound 1 1740 nM + Etoposide 3780 nM, molar ratio 1:2.174
[28] = Table 36: Example Compound 1 1740 nM + Fludarabine nucleoside 19900 nM, molar ratio 1:11.44
[29] = Table 36: Example Compound 1 1740 nM + Gemcitabine 8.37 nM, molar ratio 1:0.004813
[30] = Table 36: Example Compound 1 1740 nM + Guadecitabine 1050 nM, molar ratio 1:0.6048
[31] = Table 36: Example Compound 1 1740 nM + Lapatinib 5990 nM, molar ratio 1:3.443
[32] = Table 36: Example Compound 1 1740 nM + Luminespib 13.5 nM, molar ratio 1:0.007735
[33] = Table 36: Example Compound 1 1740 nM + Midostaurin 250 nM, molar ratio 1:0.1438
[34] = Table 36: Example Compound 1 1740 nM + Olaparib 14800 nM, molar ratio 1:8.494
[35] = Table 36: Example Compound 1 1740 nM + Oxaliplatin 1060 nM, molar ratio 1:0.6082
[36] = Table 36: Example Compound 1 1740 nM + SCH900776 4590 nM, molar ratio 1:2.639
[37] = Table 36: Example Compound 1 1740 nM + Sunitinib 2800 nM, molar ratio 1:1.608
[38] = Table 36: Example Compound 1 1740 nM + Talazoparib 7980 nM, molar ratio 1:4.587
[39] = Table 36: Example Compound 1 1740 nM + Trifluridine 644 nM, molar ratio 1:0.3703
[40] = Table 36: Example Compound 1 2620 nM + Carboplatin 79500 nM, molar ratio 1:30.35
[41] = Table 36: Example Compound 1 2620 nM + Cisplatin 3610 nM, molar ratio 1:3.669
[42] = Table 36: Example Compound 1 2620 nM + Trifluridine 970 nM, molar ratio 1:0.3703
[43] = Table 36: Example Compound 1 3920 nM + Carboplatin 119000 nM, molar ratio 1:30.35
[44] = Table 36: Example Compound 1 3920 nM + Cisplatin 14400 nM, molar ratio 1:3.669
[45] = Table 36: Example Compound 1 5890 nM + Carboplatin 179000 nM, molar ratio 1:30.35
[46] = Table 36: Example Compound 1 8830 nM + Carboplatin 268000 nM, molar ratio 1:30.35

Q: What does the source list for `Cc1ccc(F)c([C@@H](C)[C@H](NS(=O)(=O)c2ccc(Br)cc2C(N)=O)c2n[nH]c(=O)o2)c1C` [Example 1, 5-bromo-2-(N-((1 S,2R)-2-(6-fluoro-2,3-dimethylphenyl)-1-(5-oxo-4,5-dihydro-1,3,4-oxadiazol-2-yl)propyl)sulfamoyl)benzamide]?
A: CI value [1]: 0.363; Fa value [1]: 0.4283; CI value [2]: 0.287; Fa value [2]: 0.5875; CI value [3]: 0.486; Fa value [3]: 0.5213; CI value [4]: 0.818; Fa value [4]: 0.1823; CI value [5]: 0.207; Fa value [5]: 0.7673; CI value [6]: 0.250; Fa value [6]: 0.7191; CI value [7]: 0.318; Fa value [7]: 0.7989; CI value [8]: 0.528; Fa value [8]: 0.3618; CI value [9]: 0.559; Fa value [9]: 0.5070; CI value [10]: 0.558; Fa value [10]: 0.3478; CI value [11]: 0.174; Fa value [11]: 0.8934; CI value [12]: 0.210; Fa value [12]: 0.8457; CI value [13]: 0.309; Fa value [13]: 0.8880; CI value [14]: 0.842; Fa value [14]: 0.4712; CI value [15]: 0.573; Fa value [15]: 0.4748; CI value [16]: 0.405; Fa value [16]: 0.8089; CI value [17]: 0.865; Fa value [17]: 0.6357; CI value [18]: 0.627; Fa value [18]: 0.4476; CI value [19]: 0.255; Fa value [19]: 0.8825; CI value [20]: 0.740; Fa value [20]: 0.7514; CI value [21]: 0.842; Fa value [21]: 0.6401; CI value [22]: 0.835; Fa value [22]: 0.7276; CI value [23]: 0.820; Fa value [23]: 0.6539; CI value [24]: 0.688; Fa value [24]: 0.8307; CI value [25]: 0.619; Fa value [25]: 0.7121; CI value [26]: 0.627; Fa value [26]: 0.5994; CI value [27]: 0.631; Fa value [27]: 0.7574; CI value [28]: 0.537; Fa value [28]: 0.8431; CI value [29]: 0.757; Fa value [29]: 0.8623; CI value [30]: 0.640; Fa value [30]: 0.5997; CI value [31]: 0.400; Fa value [31]: 0.8672; CI value [32]: 0.828; Fa value [32]: 0.8341; CI value [33]: 0.624; Fa value [33]: 0.8366; CI value [34]: 0.575; Fa value [34]: 0.7460; CI value [35]: 0.787; Fa value [35]: 0.7638; CI value [36]: 0.411; Fa value [36]: 0.8708; CI value [37]: 0.811; Fa value [37]: 0.8380; CI value [38]: 0.508; Fa value [38]: 0.7568; CI value [39]: 0.696; Fa value [39]: 0.8343; CI value [40]: 0.519; Fa value [40]: 0.8844; CI value [41]: 0.701; Fa value [41]: 0.9341; CI value [42]: 0.744; Fa value [42]: 0.9017; CI value [43]: 0.474; Fa value [43]: 0.9458; CI value [44]: 0.608; Fa value [44]: 0.9720; CI value [45]: 0.627; Fa value [45]: 0.9560; CI value [46]: 0.635; Fa value [46]: 0.9773

From patent US20200405697A1, “Antitumor Agent” (Taiho Pharmaceutical Co., Ltd, priority 2017, published 2020)
